What was measured:
TRKA-G595R = target: T1, TRKA-G595R (Homo sapiens, UniProt P04629, G595R); experiment: TRK kinase mutant inhibition (HTRF), TRKA-G595R; assay type: biochemical
T1 construct: purchased Carna Biosciences

TRKC = target: T2, TRKC (Homo sapiens, UniProt Q16288); experiment: In vitro biochemical HTRF KinEASE kinase inhibition, TRKC; conditions: wild-type kinase, final ATP 2.526 μmol/L
T2 construct: purchased Carna Biosciences 08-197

[1] = Drug metabolism study in rats, intravenous administration; conditions: rat, plasma, iv, 1 mg/kg
TRKA = target: T3, TRKA (Homo sapiens, UniProt P04629); experiment: In vitro biochemical HTRF KinEASE kinase inhibition, TRKA; conditions: wild-type kinase, final ATP 3.727 μmol/L; read-out: TRKA IC50
T3 construct: purchased Carna Biosciences 08-186

TRKC-G696A = target: T4, TRKC-G696A (Homo sapiens, UniProt Q16288, G696A); experiment: TRK kinase mutant inhibition (HTRF), TRKC-G696A; assay type: biochemical
T4 construct: purchased Carna Biosciences

TRKC-G623R = target: T5, TRKC-G623R (Homo sapiens, UniProt Q16288, G623R); experiment: TRK kinase mutant inhibition (HTRF), TRKC-G623R; assay type: biochemical
T5 construct: purchased Carna Biosciences

TRKB = target: T6, TRKB (Homo sapiens, UniProt Q16620); experiment: In vitro biochemical HTRF KinEASE kinase inhibition, TRKB; conditions: wild-type kinase, final ATP 2.56 μmol/L
T6 construct: purchased Carna Biosciences 08-187
Experimental: The material and the method are as follows: wild-type kinases such as TRKA, TRKB and TRKC, and mutant kinases such as TRKA-G595R, TRKA-G667C, TRKA-F589L, TRKC-G623R and TRKC-G696A, and are derived from Carna Biosciences 08-186, 08-187, 08-197; HTRF KinEASE TKkit (Cisbio 62TKO PEC); 384 well plates (Greiner corporation); ATP (Life technologies PV 3227), MgCl2 (sigma); PHERAstar FS Multifunctional microplate reader (BMG Co.); low speed centrifuge (StaiteXiangyi corporation); incubator (Binder company).
Preparing a compound working solution: the dispensed compounds were removed from the freezer prior to testing and diluted to 100× concentration with pure DMSO; then the compound was diluted to the desired concentration of 4× with deionized water;
Preparation of 1.33× enzyme buffer (enzyme buffer): 5× enzyme buffer (from HTRF kit) was diluted to 1.33× with deionized water and the corresponding ingredients were added at a final concentration of 1.33×: 1.33 mmol/L Dithiothreitol (DTT), 1.33 mmol/L MnCl2, 6.65 mmol/L MgCl2 and 39.9 nmol/L SEB;
Preparation of a kinase working solution: TRKA, TRKB and TRKC were diluted with 1.33× enzyme buffer to the required concentrations of 2× of 0.404 ng/μL, 0.304 ng/μL and 0.236 ng/μL, respectively;
Preparing a substrate working solution: a mixture of TK Substrate Blr diluted to the desired final concentration of 4× (from HTRF kit) and ATP (10 mM) with 1.33× enzyme buffer; the final ATP concentrations for TRKA, TRKB, and TRKC were: 3.727 μmol/L, 2.56 μmol/L and 2.526 μmol/L. The TK Substrate-biotin (from HTRF KinEASE TKkit) final concentrations were all: 0.2 μmol/L.
Preparing a detection working solution: 16.67 μmol/L of Streptavidin-XL665 (Streptavidin-XL 665) were diluted to the desired final concentration of 4× with HTRF test buffer and then mixed with an equal volume of Antibody-europium Cryptate (Antibody-Cryptate) (both from HTRF kits).
An enzyme reaction step: add 4 μL of kinase working solution to each well of a low volume 384 microwell plate along with 4 μL of 1.33× enzyme buffer as a Negative control (Negative); add 2 μl of compound working solution to the wells, while adding 2 μl of […] aqueous solution as a zero compound concentration control (i.e., Positive control, Positive); incubating at 25° C. for 5 min; add 2 μL of substrate working solution to the wells to start the enzymatic reaction, shake the reaction for 30 min at 37° C.
HTRF reagent detection step: adding […] to the hole to terminate the reaction; reacting for 1 h at 25° C.;
Reading of HTRF signal: the PHERAstar FS reading is adopted to detect signals, and the corresponding setting of the instrument is as follows:
For the raw data read out per well, the ratio=665 nm/620 nm;
Calculation of inhibition rate:
Calculation of IC50 values: with the logarithm of the compound concentration as abscissa and the inhibition as ordinate, a non-linear curve was fitted in GraphPad Prism 5: log (inhibitor) vs. response—Variable slope, and calculating the concentration of the compound to be detected, namely IC50, when the enzyme activity inhibition rate is 50%.

TRKA-F589L = target: T7, TRKA-F589L (Homo sapiens, UniProt P04629, F589L); experiment: TRK kinase mutant inhibition (HTRF), TRKA-F589L; assay type: biochemical
T7 construct: purchased Carna Biosciences

[2] = Drug metabolism study in rats, oral administration; conditions: rat; for CL / Vz: oral 5 mg/kg; for AUC(0-t) / Cmax / MRT last / Tmax / bioavailability / half-life: plasma, po, 5 mg/kg
TRKA-G667C = target: T8, TRKA-G667C (Homo sapiens, UniProt P04629, G667C); experiment: TRK kinase mutant inhibition (HTRF), TRKA-G667C; assay type: biochemical
T8 construct: purchased Carna Biosciences
T8 sequence (P04629 33-796 G667C): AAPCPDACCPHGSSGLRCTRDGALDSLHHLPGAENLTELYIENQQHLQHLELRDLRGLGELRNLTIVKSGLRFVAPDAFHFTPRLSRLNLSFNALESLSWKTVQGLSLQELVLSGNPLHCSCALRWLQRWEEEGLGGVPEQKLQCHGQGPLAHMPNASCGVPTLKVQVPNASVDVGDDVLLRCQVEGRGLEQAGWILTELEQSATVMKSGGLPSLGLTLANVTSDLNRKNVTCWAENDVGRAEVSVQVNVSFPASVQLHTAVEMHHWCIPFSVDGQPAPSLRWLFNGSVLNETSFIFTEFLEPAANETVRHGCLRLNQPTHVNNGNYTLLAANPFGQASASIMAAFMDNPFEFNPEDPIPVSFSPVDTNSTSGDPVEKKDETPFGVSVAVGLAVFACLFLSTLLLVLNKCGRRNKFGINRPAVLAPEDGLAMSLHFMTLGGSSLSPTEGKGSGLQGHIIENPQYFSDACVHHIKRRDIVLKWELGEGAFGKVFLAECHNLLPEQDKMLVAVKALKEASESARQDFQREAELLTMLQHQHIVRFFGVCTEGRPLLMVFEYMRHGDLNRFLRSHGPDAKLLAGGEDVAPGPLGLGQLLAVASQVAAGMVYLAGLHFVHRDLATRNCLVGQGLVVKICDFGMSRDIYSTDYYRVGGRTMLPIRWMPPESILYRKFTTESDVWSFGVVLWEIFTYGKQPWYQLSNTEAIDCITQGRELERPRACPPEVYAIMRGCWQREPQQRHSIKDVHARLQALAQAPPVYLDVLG

T4 sequence (Q16288 32-839 G696A): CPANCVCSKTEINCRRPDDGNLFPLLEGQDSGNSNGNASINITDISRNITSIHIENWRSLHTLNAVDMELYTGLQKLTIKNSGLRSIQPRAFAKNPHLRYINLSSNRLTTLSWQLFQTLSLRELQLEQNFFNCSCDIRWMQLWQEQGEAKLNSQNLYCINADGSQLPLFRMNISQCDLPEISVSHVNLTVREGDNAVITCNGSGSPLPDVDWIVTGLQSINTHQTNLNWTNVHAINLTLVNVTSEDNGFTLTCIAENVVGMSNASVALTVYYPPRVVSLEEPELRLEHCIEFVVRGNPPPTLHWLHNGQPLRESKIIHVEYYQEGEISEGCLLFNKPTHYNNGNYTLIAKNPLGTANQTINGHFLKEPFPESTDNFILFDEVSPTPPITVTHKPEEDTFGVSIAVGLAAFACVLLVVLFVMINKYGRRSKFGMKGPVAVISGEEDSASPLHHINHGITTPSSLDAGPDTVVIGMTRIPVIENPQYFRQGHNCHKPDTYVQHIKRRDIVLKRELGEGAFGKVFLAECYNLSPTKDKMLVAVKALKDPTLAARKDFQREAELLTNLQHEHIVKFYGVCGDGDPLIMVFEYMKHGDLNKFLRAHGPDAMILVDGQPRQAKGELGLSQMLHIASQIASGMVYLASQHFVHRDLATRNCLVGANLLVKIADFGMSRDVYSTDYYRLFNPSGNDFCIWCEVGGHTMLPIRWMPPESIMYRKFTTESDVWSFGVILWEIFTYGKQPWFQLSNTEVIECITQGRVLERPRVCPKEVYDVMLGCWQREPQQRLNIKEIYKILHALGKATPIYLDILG
T5 sequence (Q16288 32-839 G623R): as the sequence (Q16288 32-839 G696A) above, with G592R, A665G counted along it
T6 sequence (Q16620 32-822): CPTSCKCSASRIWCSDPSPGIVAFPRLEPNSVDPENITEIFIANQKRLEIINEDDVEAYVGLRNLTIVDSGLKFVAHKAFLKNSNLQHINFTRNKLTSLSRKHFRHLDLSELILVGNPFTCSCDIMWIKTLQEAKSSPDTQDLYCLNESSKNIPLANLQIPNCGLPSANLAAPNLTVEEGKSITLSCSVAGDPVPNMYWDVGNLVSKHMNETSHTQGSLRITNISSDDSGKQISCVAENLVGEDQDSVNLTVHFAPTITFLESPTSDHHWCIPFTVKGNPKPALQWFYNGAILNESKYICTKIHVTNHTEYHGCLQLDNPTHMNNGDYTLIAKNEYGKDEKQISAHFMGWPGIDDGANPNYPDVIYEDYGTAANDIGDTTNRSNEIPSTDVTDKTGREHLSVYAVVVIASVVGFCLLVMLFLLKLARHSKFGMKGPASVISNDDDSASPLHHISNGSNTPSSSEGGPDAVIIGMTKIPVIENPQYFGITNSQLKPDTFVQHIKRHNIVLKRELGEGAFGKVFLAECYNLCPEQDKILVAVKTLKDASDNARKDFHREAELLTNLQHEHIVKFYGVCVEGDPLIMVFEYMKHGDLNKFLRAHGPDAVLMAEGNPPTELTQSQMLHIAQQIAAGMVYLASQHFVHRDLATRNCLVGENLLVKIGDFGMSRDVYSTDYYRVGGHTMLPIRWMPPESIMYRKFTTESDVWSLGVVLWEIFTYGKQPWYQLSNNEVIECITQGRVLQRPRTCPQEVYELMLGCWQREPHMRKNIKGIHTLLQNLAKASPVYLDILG
T2 sequence (Q16288 32-825 isoform Q16288-3 limits assumed): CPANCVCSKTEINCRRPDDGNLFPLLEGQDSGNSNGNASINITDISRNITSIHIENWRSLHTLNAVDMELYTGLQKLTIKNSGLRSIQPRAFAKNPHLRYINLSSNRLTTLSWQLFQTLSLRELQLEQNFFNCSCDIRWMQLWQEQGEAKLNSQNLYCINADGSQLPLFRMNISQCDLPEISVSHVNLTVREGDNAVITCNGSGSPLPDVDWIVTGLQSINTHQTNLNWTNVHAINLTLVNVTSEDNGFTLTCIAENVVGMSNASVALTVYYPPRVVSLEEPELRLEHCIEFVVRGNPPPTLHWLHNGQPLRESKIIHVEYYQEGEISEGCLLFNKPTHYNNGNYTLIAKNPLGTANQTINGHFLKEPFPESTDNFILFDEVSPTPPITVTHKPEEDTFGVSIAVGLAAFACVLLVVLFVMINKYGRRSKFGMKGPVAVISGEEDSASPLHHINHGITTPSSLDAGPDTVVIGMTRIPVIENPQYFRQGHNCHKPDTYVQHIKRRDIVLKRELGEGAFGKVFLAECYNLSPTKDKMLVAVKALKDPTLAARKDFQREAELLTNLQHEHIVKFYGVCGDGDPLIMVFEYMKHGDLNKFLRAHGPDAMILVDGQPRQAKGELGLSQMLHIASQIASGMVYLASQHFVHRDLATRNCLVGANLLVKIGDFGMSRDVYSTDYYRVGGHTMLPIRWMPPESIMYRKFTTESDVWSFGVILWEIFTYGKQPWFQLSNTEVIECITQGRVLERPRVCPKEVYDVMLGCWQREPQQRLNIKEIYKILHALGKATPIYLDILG
T1 sequence (P04629 33-796 G595R): as the sequence (P04629 33-796 G667C) above, with G563R, C635G counted along it
T7 sequence (P04629 33-796 F589L): as the sequence (P04629 33-796 G667C) above, with F557L, C635G counted along it
T3 sequence (P04629 33-796): as the sequence (P04629 33-796 G667C) above, with C635G counted along it

Structure (SMILES) | IC50 (TRKA-G595R) [nM] | IC50 (TRKC) [nM] | IC50 (TRKA) [nM] | IC50 (TRKC-G696A) [nM] | IC50 (TRKC-G623R) [nM] | IC50 (TRKB) [nM] | IC50 (TRKA-F589L) [nM] | IC50 (TRKA-G667C) [nM] | other results
C[C@@H](Nc1ccn2ncc(-c3cn[nH]c3)c2n1)c1cc(F)ccc1OCC(F)F [Compound 1, (R)-N-(1-(2-(2,2-difluoroethoxy)-5-fluorophenyl)ethyl)-3-(1H-pyrazol-4-yl) pyrazolo [1,5-a] pyrimidin-5-amine] | 0.84 | 3.1 | 1.9 | 0.76 | 0.45 | 1.9 | 0.22 | 1.76 | AUC(0-t) [1]: 434 ng·h/mL; Cmax [1]: 260 ng/mL; MRT last [1]: 3.62 h; Vd [1]: 16.9 L/kg; clearance [1]: 38.5 mL/min/kg; half-life [1]: 5.1 h; CL [2]: 126 mL/min/kg; Vz [2]: 48.49 L/kg; AUC(0-t) [2]: 650 ng·h/mL; Cmax [2]: 109 ng/mL; MRT last [2]: 5.69 h; Tmax [2]: 0.83 h; bioavailability [2]: 29.9%; half-life [2]: 4.44 h
C[C@@H](Nc1ccn2ncc(-c3cnn(C)c3)c2n1)c1cc(F)ccc1OC(F)F [Compound a4-8] | 1.2 | 3.5 | 2.4 | 1.1 | 2.9 | 1.5 | 0.4 | 3.2 | –
C[C@@H](Nc1ccn2ncc(-c3cn[nH]c3)c2n1)c1cc(F)ccc1OCCF [Compound b7-16, (R)-N-(1-(5-fluoro-2-(2-fluoroethoxy)phenyl)ethyl)-3-(1H-pyrazol-4-yl) pyrazolo [1,5-a] pyrimidin-5-amine] | 1.1 | 3 | 2.5 | 0.77 | 0.93 | 2.5 | 0.32 | 1 | –
CC(Nc1ccn2ncc(-c3cn[nH]c3)c2n1)c1cc(F)cc(OCC(F)F)c1 (stereo not drawn) [Control Compound C, reference compound] | > 1000 | > 1000 | > 1000 | > 1000 | > 1000 | > 1000 | > 1000 | > 1000 | –
CC(Nc1ccn2ncc(-c3cn[nH]c3)c2n1)c1ccc(OCC(F)F)c(F)c1 (stereo not drawn) [Control Compound D, reference compound] | > 1000 | > 1000 | > 1000 | > 1000 | > 1000 | > 1000 | > 1000 | > 1000 | –

Second part, led by results:

IC50 (TRKA-G595R) [nM] | IC50 (TRKC) [nM] | IC50 (TRKA) [nM] | IC50 (TRKC-G696A) [nM] | IC50 (TRKC-G623R) [nM] | IC50 (TRKB) [nM] | IC50 (TRKA-F589L) [nM] | IC50 (TRKA-G667C) [nM] | Structure (SMILES) | other results
1.1 | – | 10.9 | 0.77 | 0.93 | – | 0.32 | 1 | CC(Nc1ccn2ncc(-c3cnn(C(F)F)c3)c2n1)c1cc(F)ccc1OCCF (stereo not drawn) [Compound a11-18, 3-(1-(difluoromethyl)-1H-pyrazol-4-yl)-N-(1-(5-fluoro-2-(2-fluoroethoxy)phenyl)ethyl) pyrazolo [1,5-a] pyrimidin-5-amine] | –
1.5 | 6.1 | 4 | 0.88 | 1.7 | 3 | 0.38 | 1.37 | C[C@@H](Nc1ccn2ncc(-c3cnn(C)c3)c2n1)c1cc(F)ccc1OCC(F)(F)F [Compound a23-31, (R)-N-(1-(5-fluoro-2-(2,2,2-trifluoroethoxy)phenyl)ethyl)-3-(1-methyl-1H-pyrazol-4-yl) pyrazolo [1,5-a] pyrimidin-5-amine] | –
0.94 | 2.9 | 3.1 | 0.75 | 1.1 | 1.4 | 0.44 | 1.39 | C[C@@H](Nc1ccn2ncc(-c3cnn(CCO)c3)c2n1)c1cc(F)ccc1OCC(F)(F)F [Compound a24-32, (R)-2-(4-(5-((1-(5-fluoro-2-(2,2,2-trifluoroethoxy)phenyl)ethyl)amino)pyrazolo [1,5-a]pyrimidin-3-yl)-1H-pyrazol-1-yl) ethanol] | AUC(0-t) [1]: 343 ng·h/mL; Cmax [1]: 155 ng/mL; MRT last [1]: 4.29 h; Vd [1]: 22.8 L/kg; clearance [1]: 47.7 mL/min/kg; half-life [1]: 5.51 h; CL [2]: 105 mL/min/kg; Vz [2]: 28.2 L/kg; AUC(0-t) [2]: 816 ng·h/mL; Cmax [2]: 195 ng/mL; MRT last [2]: 3.8 h; Tmax [2]: 0.5 h; bioavailability [2]: 47.6%; half-life [2]: 3.2 h

— patent US20220177477A1 (Central China Normal University, priority 2019, published 2022)
